The values below come from EP2666766A1, “Novel E,E-diene compounds and their use as medicaments and cosmetics” (Dr. August Wolff GmbH & Co. KG Arzneimittel, priority 2012, dated 2013).

For this test, the system named is Arachidonoylethanolamide Transport (AEAT). Description: Cellular uptake of [3H]-AEA (inhibition of AEA transport). In kind it is cell-based. As to conditions: Homo sapiens, U-937, 0.25 h; U937 cells; 100 nM AEA, 15 min, 37°C. As for the experimental part: C. Cellular uptake of [^3H]-AEA
Human lymphoma U937 cells were grown in RPMI 1640 medium (Invitrogen, Basel, Switzerland) supplemented with 10% fetal bovine serum, […] fungizone (amphotericin B), 100 units/ml penicillin, 100 µg/ml streptomycin, and 2 mM L-glutamine (all from Invitrogen) and selected for the cellular AEA uptake assay. 2.5 x 10^6 cells were collected and suspended in 250 µL of RPMI 1640 medium (Invitrogen, Basel, Switzerland) at 37°C using glass silanized vials. Cells were pre-incubated 15 min at 37°C in presence of test compounds in a concentration range of 10^-11 - 10^-5 M or in presence of the same amount (5 µl) of vehicle control (DMSO). Then a mixture of 0.5 nM [^3H]-AEA (60 Ci/mmol) (American Radiolabeled Chemicals, Inc., San Louis, MO, US) and 99.5 nM of nonradioactive AEA (Tocris Cookson Ltd., Bristol, UK) resulting in a final concentration of 100 nM AEA was added and samples were incubated at 37°C for another 15 minutes. The reaction was stopped by rapid filtration over UniFilter®-96 GF/C (Perkin Elmer, Boston MA, US) pre-soaked with PBS 0.25 % BSA (w/v). Cells were washed three times with ice-cold PBS buffer containing 1% fatty acid free BSA (137 mM NaCl, 2.7 mM KCl, 10 mM Na2HPO4, 1.76 mM KH2PO4, 1% BSA fatty acid free, pH 7.4), dried and 40 µL MicroScint 20 scintillation cocktail (Perkin Elmer, Waltham, MA, US) was added. Radioactivity was measured using a Perkin Elmer 1450 Microbeta TRILUX liquid scintillation counter. Results were expressed as % of AEA uptake versus cells treated with solvent and the EC50 and IC50 values were calculated from the sigmoidal curves, which were generated using the GraphPad Prism 5.0 (GraphPad Software, San Diego, CA, US). Table 2: Inhibition of Arachidonoylethanolamide Transport (AEAT) (Determination as Described in Biological Assays C)
Broadly, the EC50 is the concentration that produces a half-maximal response. With `CCCCCOC/C=C/C=C/CNC(=O)OCc1ccncc1` [Example 1], the EC50 came to 147 nM. In other words, the sub-micromolar range.
To `CCCCOCC/C=C/C=C/CN(C)C(=O)OCc1cc(C(=O)OCC)no1` [Example 14] belongs 286 nM; to `CCCCOCC/C=C/C=C/CNC(=O)OCc1cc(C(=O)NC)no1` [Example 13], 0.573 nM.
To `CCCCCOC/C=C/C=C/CNC(=O)NCCc1ccc(O)c(O)c1` [Example 3] belongs 6 nM.
To `CCCCOCC/C=C/C=C/CN(C)C(=O)OCc1cc(C(=O)NC)no1` [Example 16] belongs 7 nM; to `CCCCOCC/C=C/C=C/CNC(=O)OCc1cc(C(N)=O)no1` [Example 18], 9 nM; to `CCCCOCC/C=C/C=C/CN(C)C(=O)OCc1cc(C(=O)N(C)C)no1` [Example 17], 81 nM.
As to `CCCCOCC/C=C/C=C/CN(C)C(=O)OCc1cc(C(N)=O)no1` [Example 15], the EC50 turned out to be 70 nM.
To `CCCCOCC/C=C/C=C/CNC(=O)OCc1cc(C(=O)OCC)no1` [Example 9] belongs 3 nM; to `CCCCOCC/C=C/C=C/CNC(=O)OCc1cc(C(=O)N(C)C)no1` [Example 12], 6 nM.
